Molecule `CC1(C)O[C@@H]2[C@@H](CO[C@@]3(COS(N)(=O)=O)OC(C)(C)O[C@@H]23)O1` has a solubility (mole fraction) (in 2-butoxyethanol, 278.15 K) of 0.0541, a solubility (mole fraction) (in 2-butoxyethanol, 283.15 K) of 0.0602 and a solubility (mole fraction) (in 2-butoxyethanol, 288.15 K) of 0.0676. It also gave a solubility (mole fraction) (in 2-butoxyethanol, 293.15 K) of 0.0756, a solubility (mole fraction) (in 2-butoxyethanol, 298.15 K) of 0.0849 and a solubility (mole fraction) (in 2-butoxyethanol, 303.15 K) of 0.0986. For the same molecule, the solubility (mole fraction) (in 2-butoxyethanol, 308.15 K) was 0.111, the solubility (mole fraction) (in 2-butoxyethanol, 313.15 K) was 0.124 and the solubility (mole fraction) (in 2-butoxyethanol, 318.15 K) was 0.14. For the same molecule, the solubility (mole fraction) (in 2-butoxyethanol, 323.15 K) was 0.157, the solubility (mole fraction) (in 2-ethoxyethanol, 278.15 K) was 0.11 and the solubility (mole fraction) (in 2-ethoxyethanol, 283.15 K) was 0.118. The solubility (mole fraction) (in 2-ethoxyethanol, 288.15 K) was 0.126, the solubility (mole fraction) (in 2-ethoxyethanol, 293.15 K) was 0.137 and the solubility (mole fraction) (in 2-ethoxyethanol, 298.15 K) was 0.149. For the same molecule, the solubility (mole fraction) (in 2-ethoxyethanol, 303.15 K) was 0.162, the solubility (mole fraction) (in 2-ethoxyethanol, 308.15 K) was 0.173 and the solubility (mole fraction) (in 2-ethoxyethanol, 313.15 K) was 0.191. It also gave a solubility (mole fraction) (in 2-ethoxyethanol, 318.15 K) of 0.209, a solubility (mole fraction) (in 2-ethoxyethanol, 323.15 K) of 0.229 and a solubility (mole fraction) (in 2-methoxyethanol, 278.15 K) of 0.149. It also gave a solubility (mole fraction) (in 2-methoxyethanol, 283.15 K) of 0.156, a solubility (mole fraction) (in 2-methoxyethanol, 288.15 K) of 0.165 and a solubility (mole fraction) (in 2-methoxyethanol, 293.15 K) of 0.176. The solubility (mole fraction) (in 2-methoxyethanol, 298.15 K) was 0.187, the solubility (mole fraction) (in 2-methoxyethanol, 303.15 K) was 0.198 and the solubility (mole fraction) (in 2-methoxyethanol, 308.15 K) was 0.212. For the same molecule, the solubility (mole fraction) (in 2-methoxyethanol, 313.15 K) was 0.228, the solubility (mole fraction) (in 2-methoxyethanol, 318.15 K) was 0.245 and the solubility (mole fraction) (in 2-methoxyethanol, 323.15 K) was 0.263. The solubility (mole fraction) (in 2-propoxyethanol, 278.15 K) was 0.0726, the solubility (mole fraction) (in 2-propoxyethanol, 283.15 K) was 0.0803 and the solubility (mole fraction) (in 2-propoxyethanol, 288.15 K) was 0.089. It also gave a solubility (mole fraction) (in 2-propoxyethanol, 293.15 K) of 0.0981, a solubility (mole fraction) (in 2-propoxyethanol, 298.15 K) of 0.109 and a solubility (mole fraction) (in 2-propoxyethanol, 303.15 K) of 0.121. It also gave a solubility (mole fraction) (in 2-propoxyethanol, 308.15 K) of 0.134, a solubility (mole fraction) (in 2-propoxyethanol, 313.15 K) of 0.15 and a solubility (mole fraction) (in 2-propoxyethanol, 318.15 K) of 0.167. The solubility (mole fraction) (in 2-propoxyethanol, 323.15 K) was 0.187, the solubility (mole fraction) (in ethanol, 278.15 K) was 0.0169 and the solubility (mole fraction) (in ethanol, 283.15 K) was 0.0202. For the same molecule, the solubility (mole fraction) (in ethanol, 288.15 K) was 0.0252, the solubility (mole fraction) (in ethanol, 293.15 K) was 0.0315 and the solubility (mole fraction) (in ethanol, 298.15 K) was 0.039. For the same molecule, the solubility (mole fraction) (in ethanol, 303.15 K) was 0.0478, the solubility (mole fraction) (in ethanol, 308.15 K) was 0.0628 and the solubility (mole fraction) (in ethanol, 313.15 K) was 0.079. It also gave a solubility (mole fraction) (in ethanol, 318.15 K) of 0.102, a solubility (mole fraction) (in ethanol, 323.15 K) of 0.129 and a solubility (mole fraction) (in isobutanol, 278.15 K) of 0.00375. The solubility (mole fraction) (in isobutanol, 283.15 K) was 0.004, the solubility (mole fraction) (in isobutanol, 288.15 K) was 0.00525 and the solubility (mole fraction) (in isobutanol, 293.15 K) was 0.00684. It also gave a solubility (mole fraction) (in isobutanol, 298.15 K) of 0.00911, a solubility (mole fraction) (in isobutanol, 303.15 K) of 0.0121 and a solubility (mole fraction) (in isobutanol, 308.15 K) of 0.0166. For the same molecule, the solubility (mole fraction) (in isobutanol, 313.15 K) was 0.0225, the solubility (mole fraction) (in isobutanol, 318.15 K) was 0.0314 and the solubility (mole fraction) (in isobutanol, 323.15 K) was 0.0441. For the same molecule, the solubility (mole fraction) (in isopentanol, 278.15 K) was 0.00308, the solubility (mole fraction) (in isopentanol, 283.15 K) was 0.00401 and the solubility (mole fraction) (in isopentanol, 288.15 K) was 0.0052. For the same molecule, the solubility (mole fraction) (in isopentanol, 293.15 K) was 0.00684, the solubility (mole fraction) (in isopentanol, 298.15 K) was 0.00905 and the solubility (mole fraction) (in isopentanol, 303.15 K) was 0.0119. For the same molecule, the solubility (mole fraction) (in isopentanol, 308.15 K) was 0.0147, the solubility (mole fraction) (in isopentanol, 313.15 K) was 0.0197 and the solubility (mole fraction) (in isopentanol, 318.15 K) was 0.0261. For the same molecule, the solubility (mole fraction) (in isopentanol, 323.15 K) was 0.0353, the solubility (mole fraction) (in isopropanol, 278.15 K) was 0.00638 and the solubility (mole fraction) (in isopropanol, 283.15 K) was 0.00814. For the same molecule, the solubility (mole fraction) (in isopropanol, 288.15 K) was 0.0106, the solubility (mole fraction) (in isopropanol, 293.15 K) was 0.014 and the solubility (mole fraction) (in isopropanol, 298.15 K) was 0.0186. It also gave a solubility (mole fraction) (in isopropanol, 303.15 K) of 0.0247, a solubility (mole fraction) (in isopropanol, 308.15 K) of 0.0299 and a solubility (mole fraction) (in isopropanol, 313.15 K) of 0.0408. For the same molecule, the solubility (mole fraction) (in isopropanol, 318.15 K) was 0.0594, the solubility (mole fraction) (in isopropanol, 323.15 K) was 0.0818 and the solubility (mole fraction) (in methanol, 278.15 K) was 0.0401. The solubility (mole fraction) (in methanol, 283.15 K) was 0.0476, the solubility (mole fraction) (in methanol, 288.15 K) was 0.0569 and the solubility (mole fraction) (in methanol, 293.15 K) was 0.0683. It also gave a solubility (mole fraction) (in methanol, 298.15 K) of 0.081, a solubility (mole fraction) (in methanol, 303.15 K) of 0.0951 and a solubility (mole fraction) (in methanol, 308.15 K) of 0.112. For the same molecule, the solubility (mole fraction) (in methanol, 313.15 K) was 0.131, the solubility (mole fraction) (in methanol, 318.15 K) was 0.148 and the solubility (mole fraction) (in methanol, 323.15 K) was 0.174. For the same molecule, the solubility (mole fraction) (in n-butanol, 278.15 K) was 0.00495, the solubility (mole fraction) (in n-butanol, 283.15 K) was 0.00629 and the solubility (mole fraction) (in n-butanol, 288.15 K) was 0.00804. For the same molecule, the solubility (mole fraction) (in n-butanol, 293.15 K) was 0.0103, the solubility (mole fraction) (in n-butanol, 298.15 K) was 0.0131 and the solubility (mole fraction) (in n-butanol, 303.15 K) was 0.0172. It also gave a solubility (mole fraction) (in n-butanol, 308.15 K) of 0.0231, a solubility (mole fraction) (in n-butanol, 313.15 K) of 0.0298 and a solubility (mole fraction) (in n-butanol, 318.15 K) of 0.0397. It also gave a solubility (mole fraction) (in n-butanol, 323.15 K) of 0.0538, a solubility (mole fraction) (in n-heptanol, 278.15 K) of 0.00256 and a solubility (mole fraction) (in n-heptanol, 283.15 K) of 0.00327. For the same molecule, the solubility (mole fraction) (in n-heptanol, 288.15 K) was 0.00425, the solubility (mole fraction) (in n-heptanol, 293.15 K) was 0.0054 and the solubility (mole fraction) (in n-heptanol, 298.15 K) was 0.00686. For the same molecule, the solubility (mole fraction) (in n-heptanol, 303.15 K) was 0.00877, the solubility (mole fraction) (in n-heptanol, 308.15 K) was 0.0116 and the solubility (mole fraction) (in n-heptanol, 313.15 K) was 0.015. It also gave a solubility (mole fraction) (in n-heptanol, 318.15 K) of 0.0196, a solubility (mole fraction) (in n-heptanol, 323.15 K) of 0.0256 and a solubility (mole fraction) (in n-hexanol, 278.15 K) of 0.0029. It also gave a solubility (mole fraction) (in n-hexanol, 283.15 K) of 0.00363, a solubility (mole fraction) (in n-hexanol, 288.15 K) of 0.00496 and a solubility (mole fraction) (in n-hexanol, 293.15 K) of 0.00628. The solubility (mole fraction) (in n-hexanol, 298.15 K) was 0.00807, the solubility (mole fraction) (in n-hexanol, 303.15 K) was 0.0104 and the solubility (mole fraction) (in n-hexanol, 308.15 K) was 0.0138. The solubility (mole fraction) (in n-hexanol, 313.15 K) was 0.018, the solubility (mole fraction) (in n-hexanol, 318.15 K) was 0.0236 and the solubility (mole fraction) (in n-hexanol, 323.15 K) was 0.0312. The solubility (mole fraction) (in n-pentanol, 278.15 K) was 0.00373, the solubility (mole fraction) (in n-pentanol, 283.15 K) was 0.00472 and the solubility (mole fraction) (in n-pentanol, 288.15 K) was 0.00601. For the same molecule, the solubility (mole fraction) (in n-pentanol, 293.15 K) was 0.00747, the solubility (mole fraction) (in n-pentanol, 298.15 K) was 0.00969 and the solubility (mole fraction) (in n-pentanol, 303.15 K) was 0.0126. It also gave a solubility (mole fraction) (in n-pentanol, 308.15 K) of 0.0157, a solubility (mole fraction) (in n-pentanol, 313.15 K) of 0.0207 and a solubility (mole fraction) (in n-pentanol, 318.15 K) of 0.0272. The solubility (mole fraction) (in n-pentanol, 323.15 K) was 0.0367, the solubility (mole fraction) (in n-propanol, 278.15 K) was 0.00715 and the solubility (mole fraction) (in n-propanol, 283.15 K) was 0.00923. For the same molecule, the solubility (mole fraction) (in n-propanol, 288.15 K) was 0.0116, the solubility (mole fraction) (in n-propanol, 293.15 K) was 0.0148 and the solubility (mole fraction) (in n-propanol, 298.15 K) was 0.0187. The solubility (mole fraction) (in n-propanol, 303.15 K) was 0.0252, the solubility (mole fraction) (in n-propanol, 308.15 K) was 0.0333 and the solubility (mole fraction) (in n-propanol, 313.15 K) was 0.0439. The solubility (mole fraction) (in n-propanol, 318.15 K) was 0.0591 and the solubility (mole fraction) (in n-propanol, 323.15 K) was 0.0794.
